Experimental findings from patent US20090227556A1, “RECEPTOR TYROSINE KINASE INHIBITORS COMPRISING PYRIDINE AND PYRIMIDINE DERIVATIVES” (Eisai R&D Management Co., Ltd., priority 2008, published 2009) are described below.

Each structure is given as a SMILES string.

The test system of experiment [1] is Human umbilical vein endothelial cells (HUVECs). The experiment in a line: Growth inhibitory activity on human umbilical vein endothelial cells stimulated by VEGF. The experiment is classed as cell-based. Conditions: HUVEC, 72 h, 3 days, Cell Counting Kit-8. On the procedure: Human umbilical vein endothelial cells (HUVECs) were isolated according to the reported method (Shin-seikagaku jikken kouza “saibou baiyou gijutu (Cell culturing techniques)” p. 197-202) and incubated to confluence using an EGM-2 culture medium (obtained from Sanko Junyaku Co., Ltd.) in a 5% CO2 incubator (37° C.). The HUVECs were collected by a trypsin-EDTA treatment and washed with a culture medium (2% fetal bovine serum-supplemented Human endothelial SFM basal medium, obtained from Invitrogen Corp.), followed by suspending them in the medium to count the cell number. By diluting it with the medium, a 2×10^4 cells/ml cell suspension was prepared. The cell suspension was dispensed into a 96-well plate (obtained from FALCON) by 100 μl each, and incubated at 37° C. in a 5% CO2 incubator overnight. After the incubation, 50 μl of the test substance diluted with the medium was added to each well, and 50 μL of 80 ng/ml human recombinant VEGF (obtained from R&D systems, Inc.) diluted with the medium was added and further incubated for 3 days in the 5% CO2 incubator (37° C.). After the incubation, 20 μl of Cell Counting Kit-8 (obtained from DOJINDO Laboratories) was added to each well, which were incubated for about 2 hours in the 5% CO2 incubator (37° C.). After the incubation, the absorbance of the each well was measured using a plate reader MTP-500 (Corona Electric Co., Ltd) with a measurement wavelength of 450 nm and a control wavelength of 660 nm. A ratio of absorbance (%) of each well with the test substance against the wells without the test substance was determined, and based on this ratio, the concentration of the test substance required to inhibit 50% of cell proliferation (IC50) was determined and the results are shown in Table 2.
On the technique in general: Tetrazolium assays rely on reduction of a dye to a coloured formazan, in cell work by metabolically active cells.

In the next experiment the target is T1, VEGFR-1 (FLT 1) (Homo sapiens, UniProt P17948).
T1 construct: purchased Carna Biosciences Inc. 08-189
T1 sequence (P17948 27-1338): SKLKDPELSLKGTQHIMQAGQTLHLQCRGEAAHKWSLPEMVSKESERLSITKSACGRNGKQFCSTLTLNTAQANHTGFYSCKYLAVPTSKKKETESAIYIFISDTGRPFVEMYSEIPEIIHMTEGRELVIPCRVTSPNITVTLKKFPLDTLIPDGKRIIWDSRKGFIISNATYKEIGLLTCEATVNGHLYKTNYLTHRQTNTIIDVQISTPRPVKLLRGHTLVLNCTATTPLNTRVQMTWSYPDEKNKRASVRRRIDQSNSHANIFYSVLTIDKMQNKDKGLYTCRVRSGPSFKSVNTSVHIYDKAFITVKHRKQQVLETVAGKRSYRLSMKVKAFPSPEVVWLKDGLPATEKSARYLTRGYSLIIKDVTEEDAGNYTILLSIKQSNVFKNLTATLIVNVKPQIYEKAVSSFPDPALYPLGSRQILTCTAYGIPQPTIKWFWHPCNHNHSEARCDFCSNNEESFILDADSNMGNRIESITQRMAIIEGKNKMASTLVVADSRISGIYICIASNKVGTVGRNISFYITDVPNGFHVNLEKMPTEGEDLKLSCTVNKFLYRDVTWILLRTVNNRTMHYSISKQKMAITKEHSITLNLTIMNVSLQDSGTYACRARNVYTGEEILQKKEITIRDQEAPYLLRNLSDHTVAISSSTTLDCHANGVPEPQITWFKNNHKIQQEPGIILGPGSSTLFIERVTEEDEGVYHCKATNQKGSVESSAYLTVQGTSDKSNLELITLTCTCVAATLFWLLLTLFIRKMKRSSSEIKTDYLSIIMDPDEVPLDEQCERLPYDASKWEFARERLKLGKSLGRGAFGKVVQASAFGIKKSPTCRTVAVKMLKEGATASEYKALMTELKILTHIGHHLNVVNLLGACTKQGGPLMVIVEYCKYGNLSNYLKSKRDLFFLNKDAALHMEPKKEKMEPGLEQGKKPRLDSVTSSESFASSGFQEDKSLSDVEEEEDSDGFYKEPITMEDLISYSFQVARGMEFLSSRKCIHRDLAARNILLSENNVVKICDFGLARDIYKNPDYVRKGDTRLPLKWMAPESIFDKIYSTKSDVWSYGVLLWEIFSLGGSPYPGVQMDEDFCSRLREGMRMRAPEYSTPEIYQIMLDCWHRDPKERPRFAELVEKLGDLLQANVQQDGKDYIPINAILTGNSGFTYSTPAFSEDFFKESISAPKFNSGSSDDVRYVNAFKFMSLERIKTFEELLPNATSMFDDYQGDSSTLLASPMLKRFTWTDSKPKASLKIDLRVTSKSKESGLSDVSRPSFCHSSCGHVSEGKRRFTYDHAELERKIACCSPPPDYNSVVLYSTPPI
Put plainly: Tyrosine kinase inhibition, mobility shift assay (MSA). In kind it is biochemical. Conditions: recombinant human kinase. On the procedure: (§1) A test compound was dissolved in dimethyl sulfoxide to make a 10 mM solution, which was stored in a dark place at 4° C. until use.
(§2) Protein tyrosine kinases (recombinant human kinases) used in the study were the following products from Carna Biosciences Inc. (Kobe, Japan).
(§3) VEGFR-1 (FLT 1) (product number: 08-189) VEGFR-3 (FLT 4) (product number: 08-190) RON (product number: 08-152) RET (product number: 08-159) KIT (product number: 08-156)
(§4) Kinase activity was measured in a mobility shift assay (MSA) method (J. Biomolecular Screening, 11, 359-368, 2006) using QuickScout Screening Assist™ (Carna Biosciences Inc., commercial kit), and enzyme-linked immunoassay (ELISA).
(§5) 5 μl of the test substance solution obtained by dissolving or suspending in an assay buffer (20 mM Hepes, 0.01% Triton X-100, 1 mM dithiothreitol, pH 7.4) (4× final concentration) or 5 μl of a solvent (4% dimethyl sulfoxide-assay buffer) was dispensed into a polypropylene 384-well plate (Greiner Bio-One, product number 781280). Then, 5 μl of QuickScout Screening Assist™ MSA in an ATP/substrate/metal solution was added. Additionally, 10 μl of the kinase solution diluted with the assay buffer was added to initiate a reaction. For a blank, only 10 μl of the assay buffer was added. The kinase concentration and reaction conditions were in accordance with the protocol of QuickScout Screening Assist™ MSA. Then, the reaction was terminated by addition of 60 μl of a termination buffer of the QuickScout Screening Assist™ MSA, and the amount of a substrate (S) and a phosphorylated substrate (P) in the reaction solution were determined using LabChip3000 (Caliper Life Science, Massachusetts, U.S.A.) in accordance with the protocol of QuickScout Screening Assist™ MSA. The amounts of the S and P were represented by respective separated peak height. […] It was on the condition that the signal was determined as P/(P+S).

In the next experiment the target is T2, RON (Homo sapiens, UniProt Q04912).
T2 construct: purchased Carna Biosciences Inc. 08-152
T2 sequence (Q04912 25-1400): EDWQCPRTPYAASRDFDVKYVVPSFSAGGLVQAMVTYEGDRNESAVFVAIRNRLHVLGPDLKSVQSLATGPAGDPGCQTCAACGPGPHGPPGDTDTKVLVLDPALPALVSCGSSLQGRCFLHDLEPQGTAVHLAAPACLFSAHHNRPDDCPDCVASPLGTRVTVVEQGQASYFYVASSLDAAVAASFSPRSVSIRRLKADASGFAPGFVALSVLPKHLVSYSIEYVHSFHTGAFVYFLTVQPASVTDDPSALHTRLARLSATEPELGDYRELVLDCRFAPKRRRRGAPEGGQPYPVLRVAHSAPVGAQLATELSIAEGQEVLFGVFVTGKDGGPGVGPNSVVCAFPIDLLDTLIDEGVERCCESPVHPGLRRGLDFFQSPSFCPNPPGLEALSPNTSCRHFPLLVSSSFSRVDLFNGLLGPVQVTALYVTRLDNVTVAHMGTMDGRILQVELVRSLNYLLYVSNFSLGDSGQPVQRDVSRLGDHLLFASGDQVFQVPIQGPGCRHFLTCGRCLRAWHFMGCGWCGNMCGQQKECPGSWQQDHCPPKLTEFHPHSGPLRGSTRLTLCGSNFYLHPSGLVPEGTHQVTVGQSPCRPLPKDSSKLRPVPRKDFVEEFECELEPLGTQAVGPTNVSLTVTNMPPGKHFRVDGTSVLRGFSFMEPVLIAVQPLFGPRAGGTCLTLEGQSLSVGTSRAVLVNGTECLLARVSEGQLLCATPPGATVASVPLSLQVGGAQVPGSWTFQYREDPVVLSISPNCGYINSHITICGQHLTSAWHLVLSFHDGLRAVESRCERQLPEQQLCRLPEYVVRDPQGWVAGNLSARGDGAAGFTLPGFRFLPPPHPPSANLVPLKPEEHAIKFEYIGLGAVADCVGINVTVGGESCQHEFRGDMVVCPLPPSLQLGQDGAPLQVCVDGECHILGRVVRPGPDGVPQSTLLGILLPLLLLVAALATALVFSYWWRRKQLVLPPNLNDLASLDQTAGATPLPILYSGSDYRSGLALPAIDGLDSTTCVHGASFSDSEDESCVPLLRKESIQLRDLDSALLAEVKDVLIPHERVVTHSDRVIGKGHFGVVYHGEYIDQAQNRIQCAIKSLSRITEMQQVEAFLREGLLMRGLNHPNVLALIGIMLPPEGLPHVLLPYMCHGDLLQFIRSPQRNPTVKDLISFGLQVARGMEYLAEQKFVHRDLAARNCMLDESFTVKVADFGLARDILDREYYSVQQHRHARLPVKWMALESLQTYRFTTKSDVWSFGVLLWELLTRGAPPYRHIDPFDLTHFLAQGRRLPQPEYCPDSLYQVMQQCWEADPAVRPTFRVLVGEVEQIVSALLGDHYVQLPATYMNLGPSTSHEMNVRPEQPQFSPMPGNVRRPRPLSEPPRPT
Described as above. Conditions: recombinant human kinase. In kind it is biochemical. On the procedure:
as §1, §2, §3, §4, §5

The target of another experiment is T3, RET (Homo sapiens, UniProt P07949).
T3 construct: purchased Carna Biosciences Inc. 08-159
T3 sequence (P07949 29-1114): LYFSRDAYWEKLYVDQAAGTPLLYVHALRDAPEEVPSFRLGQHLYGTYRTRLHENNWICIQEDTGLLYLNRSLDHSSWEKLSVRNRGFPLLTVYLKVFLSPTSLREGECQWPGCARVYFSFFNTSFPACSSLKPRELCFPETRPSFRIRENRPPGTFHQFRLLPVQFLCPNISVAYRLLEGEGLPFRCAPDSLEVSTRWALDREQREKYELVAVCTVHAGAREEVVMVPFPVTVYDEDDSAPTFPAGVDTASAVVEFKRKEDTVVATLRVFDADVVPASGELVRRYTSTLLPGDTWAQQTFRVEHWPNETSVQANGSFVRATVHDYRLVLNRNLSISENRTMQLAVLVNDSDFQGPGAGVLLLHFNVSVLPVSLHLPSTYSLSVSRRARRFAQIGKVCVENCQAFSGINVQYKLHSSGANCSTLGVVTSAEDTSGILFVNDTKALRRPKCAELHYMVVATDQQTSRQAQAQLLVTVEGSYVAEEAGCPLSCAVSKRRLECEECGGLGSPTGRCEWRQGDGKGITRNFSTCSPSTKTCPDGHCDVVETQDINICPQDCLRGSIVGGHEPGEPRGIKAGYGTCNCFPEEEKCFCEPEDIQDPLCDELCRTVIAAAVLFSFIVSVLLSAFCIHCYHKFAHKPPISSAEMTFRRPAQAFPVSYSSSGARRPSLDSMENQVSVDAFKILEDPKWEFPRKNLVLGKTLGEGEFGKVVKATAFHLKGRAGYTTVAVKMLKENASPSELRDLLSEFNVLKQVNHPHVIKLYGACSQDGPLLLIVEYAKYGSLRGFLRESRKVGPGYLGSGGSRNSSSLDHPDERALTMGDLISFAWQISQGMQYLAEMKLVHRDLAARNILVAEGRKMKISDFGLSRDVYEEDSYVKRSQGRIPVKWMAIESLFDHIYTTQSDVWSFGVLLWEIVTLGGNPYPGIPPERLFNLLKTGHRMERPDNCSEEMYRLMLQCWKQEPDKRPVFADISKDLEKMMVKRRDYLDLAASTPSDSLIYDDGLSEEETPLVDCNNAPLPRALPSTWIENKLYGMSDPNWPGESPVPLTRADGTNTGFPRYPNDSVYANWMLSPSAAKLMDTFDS
The experiment is described as above. Conditions: recombinant human kinase. In kind it is biochemical. On the procedure: as §1, §2, §3, §4, §5

For a further experiment, the target named is T4, VEGFR-3 (FLT 4) (Homo sapiens, UniProt P35916).
T4 construct: purchased Carna Biosciences Inc. 08-190
T4 sequence (P35916 25-1363): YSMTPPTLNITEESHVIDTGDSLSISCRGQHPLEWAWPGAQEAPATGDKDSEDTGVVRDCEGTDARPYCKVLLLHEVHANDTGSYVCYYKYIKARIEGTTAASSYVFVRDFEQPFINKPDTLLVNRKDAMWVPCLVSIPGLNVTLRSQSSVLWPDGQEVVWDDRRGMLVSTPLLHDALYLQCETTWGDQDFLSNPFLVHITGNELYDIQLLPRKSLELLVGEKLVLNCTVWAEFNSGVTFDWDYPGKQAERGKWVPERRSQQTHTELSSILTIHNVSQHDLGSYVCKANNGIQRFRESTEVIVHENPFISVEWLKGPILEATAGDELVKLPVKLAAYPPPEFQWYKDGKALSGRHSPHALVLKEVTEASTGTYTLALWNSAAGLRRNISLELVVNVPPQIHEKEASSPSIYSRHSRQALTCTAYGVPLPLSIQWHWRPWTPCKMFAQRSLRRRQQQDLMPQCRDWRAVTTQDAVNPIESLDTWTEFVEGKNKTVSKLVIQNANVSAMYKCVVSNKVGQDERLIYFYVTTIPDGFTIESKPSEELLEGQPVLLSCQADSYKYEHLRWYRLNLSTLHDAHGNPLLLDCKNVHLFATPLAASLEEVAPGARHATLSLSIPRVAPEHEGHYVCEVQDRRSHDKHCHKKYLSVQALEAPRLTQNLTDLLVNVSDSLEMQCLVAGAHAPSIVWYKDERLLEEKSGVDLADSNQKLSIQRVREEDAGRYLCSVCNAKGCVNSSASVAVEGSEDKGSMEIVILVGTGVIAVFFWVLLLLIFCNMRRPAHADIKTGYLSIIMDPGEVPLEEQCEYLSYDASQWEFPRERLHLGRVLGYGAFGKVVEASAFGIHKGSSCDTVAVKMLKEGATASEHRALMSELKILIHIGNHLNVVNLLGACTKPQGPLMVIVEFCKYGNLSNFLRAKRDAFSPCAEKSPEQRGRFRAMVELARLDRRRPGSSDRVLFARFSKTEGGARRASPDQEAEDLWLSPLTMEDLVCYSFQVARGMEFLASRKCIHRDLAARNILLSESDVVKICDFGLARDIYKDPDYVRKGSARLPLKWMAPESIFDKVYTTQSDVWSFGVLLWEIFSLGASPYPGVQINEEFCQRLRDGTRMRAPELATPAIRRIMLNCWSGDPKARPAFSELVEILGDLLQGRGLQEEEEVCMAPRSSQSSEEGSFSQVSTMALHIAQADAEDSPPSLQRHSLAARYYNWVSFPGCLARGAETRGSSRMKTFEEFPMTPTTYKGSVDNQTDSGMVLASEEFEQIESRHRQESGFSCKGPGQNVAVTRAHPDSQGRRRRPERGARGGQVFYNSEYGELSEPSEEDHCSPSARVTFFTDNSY
The experiment is described as above. In kind it is biochemical. Conditions: recombinant human kinase. On the procedure:
as §1, §2, §3, §4, §5

As to `O=C(Nc1cc(Oc2cc(F)c(NC(=O)C3(C(=O)Nc4ccc(F)cc4)CC3)cc2F)ccn1)N1CC(CO)C1` [N-(2,5-Difluoro-4-{[2-({[3-(hydroxymethyl)azetidin-1-yl]carbonyl}amino)pyridin-4-yl]oxy}phenyl)-N′-(4-fluorophenyl)cyclopropane-1,1-dicarboxamide], the half-inhibitory concentration (IC50) was determined as 0.0055 µM in experiment [1]; 0.014 µM on VEGFR-1 (FLT 1); 0.0026 µM on RON; 0.028 µM at RET; 0.0062 µM on VEGFR-3 (FLT 4).
On to `CN1CCN(C2CCN(C(=O)Nc3cc(Oc4cc(F)c(NC(=O)C5(C(=O)Nc6ccc(F)cc6)CC5)cc4F)ccn3)CC2)CC1` [N-(2,5-Difluoro-4-{[2-({[4-(4-methylpiperazin-1-yl)piperidin-1-yl]carbonyl}amino)pyridin-4-yl]oxy}phenyl)-N′-(4-fluorophenyl)cyclopropane-1,1-dicarboxamide], for which the IC50 in experiment [1] is 0.02 µM; on VEGFR-1 (FLT 1), 0.021 µM; at RON, 0.0024 µM; on RET, 0.038 µM; on VEGFR-3 (FLT 4), 0.022 µM.
For `CN1CCC(N(C)C(=O)Nc2cc(Oc3cc(F)c(NC(=O)C4(C(=O)Nc5ccc(F)cc5)CC4)cc3F)ccn2)CC1` [N-(2,5-Difluoro-4-{[2-({[methyl(1-methylpiperidin-4-yl)amino]carbonyl}amino)pyridin-4-yl]oxy}phenyl)-N′-(4-fluorophenyl)cyclopropane-1,1-dicarboxamide], the IC50 in experiment [1] worked out at 0.021 µM; at VEGFR-1 (FLT 1), 0.012 µM; at RON, 0.0018 µM; at RET, 0.036 µM; at VEGFR-3 (FLT 4), 0.011 µM.
With `O=C(Nc1cc(Oc2ccc(NC(=O)C3(C(=O)Nc4ccc(F)cc4)CC3)c(F)c2)ccn1)N1CCC1` [N-[4-({2-[(Azetidin-1-ylcarbonyl)amino]pyridin-4-yl}oxy)-2-fluorophenyl]-N′-(4-fluorophenyl)cyclopropane-1,1-dicarboxamide], the concentration for half-maximal inhibition (IC50) in experiment [1] worked out at 0.038 µM; at VEGFR-1 (FLT 1), 0.071 µM; at RON, 0.026 µM; at RET, 0.099 µM; on VEGFR-3 (FLT 4) it was 0.036 µM.
For the compound `O=C(Nc1cc(Oc2cc(F)c(NC(=O)C3(C(=O)Nc4ccc(F)cc4)CC3)cc2F)ccn1)N1CC(O)C1` [N-{2,5-Difluoro-4-[(2-{[(3-hydroxyazetidin-1-yl)carbonyl]amino}pyridin-4-yl)oxy]phenyl}-N′-(4-fluorophenyl)cyclopropane-1,1-dicarboxamide], the 50% inhibitory concentration (IC50) amounted to 0.015 µM in experiment [1]; 0.026 µM on VEGFR-1 (FLT 1); 0.0046 µM at RON; 0.044 µM at RET; 0.01 µM on VEGFR-3 (FLT 4).

Broadly, the IC50 is the concentration that gives 50% inhibition.
